For data set [1], the system named is Plasmodium yoelii. In words: Antimalarial activity against Plasmodium yoelii N67 infected in female Swiss mouse model assessed as inhibition of parasitic growth at 100 mg/kg, po measured on day 7 relative to control. The format is functional. More on the design: scale not given: the % may be the effect or the level left. The following applies: time 7 day.
A short description of data set [2]: Clearance in male Swiss mouse at 100 mg/kg, po by LC-MS/MS analysis. The format is ADME, organism-based. The following applies: in vivo.
Data set [3] in a line: AUC in male Swiss mouse at 100 mg/kg, po by LC-MS/MS analysis. It counts as ADME, organism-based. The following applies: in vivo.
Data set [4] in a line: Selectivity index, ratio of CC50 for cytotoxicity against human HepG2 cells to IC50 for antimalarial activity against chloroquine-sensitive Plasmodium falciparum 3D7 infected in human erythrocytes assessed as reduction in parasite growth incubated for 72 hrs by SYBR green dye fluorimetric assay. The format is toxicity, cell-based. The following applies: read-out: Ratio CC50/IC50.

Data set [5] has as its system Plasmodium falciparum. In words: Induction of morphological changes in asexual blood stage Plasmodium falciparum assessed as appearance of fragmentation at 1 uM incubated for 24 hrs by Geimsa-staining based light microscopic analysis. The format is functional, organism-based.
The test system of data set [6] is Plasmodium falciparum. The data set can be described thus: Induction of morphological changes in asexual blood stage Plasmodium falciparum assessed as appearance of schizonts at 1 uM incubated for 48 to 72 hrs by Geimsa-staining based light microscopic analysis. The format is functional, organism-based. The conditions noted are these: time 48-72 hrs.
The subject of data set [7] is Plasmodium falciparum. The data set can be described thus: Antimalarial activity against […] infected in human erythrocytes assessed as inhibition of parasitic growth at 5 uM incubated for 72 hrs by SYBR green dye fluorimetric assay relative to control. Also on record: scale not given: the % may be the effect or the level left. It counts as functional, K1, Erythrocyte.

Data set [8] can be described thus: Tmax in male Swiss mouse at 100 mg/kg, po by LC-MS/MS analysis. The format is ADME, organism-based. The conditions noted are these: in vivo.
Data set [9] can be described thus: Stability of the compound in simulated intestinal fluid at pH 6.8 assessed as compound remaining measured after 120 mins by HPLC analysis relative to control. The following applies: read-out: Stability. The format is physicochemical.
Data set [10] concerns Plasmodium yoelii. The data set can be described thus: Antimalarial activity against Plasmodium yoelii N67 infected in female Swiss mouse model assessed as inhibition of parasitic growth at 100 mg/kg, po administered for 4 days and measured on day 28 by Giemsa staining based analysis. The conditions noted are these: time 4.0 day. It counts as functional, organism-based.
In data set [11] the test system is Plasmodium falciparum. The data set can be described thus: Induction of morphological changes in asexual blood stage Plasmodium falciparum assessed as appearance of condensed cytoplasm at 1 uM incubated for 24 hrs by Geimsa-staining based light microscopic analysis. The format is functional, organism-based.
A short description of data set [12]: Stability of the compound in simulated physiological fluid at pH 7.4 assessed as compound remaining measured after 120 mins by HPLC analysis relative to control. The format is physicochemical. The following applies: read-out: Stability.
The next data set has as its system Plasmodium berghei. The data set can be described thus: Antimalarial activity against GFP-luciferase expressing liver stage Plasmodium berghei sporozoites infected in human HepG2 cells assessed as inhibition of parasitic growth by luminescence based analysis. The format is functional, organism-based.
Data set [13] is described as follows: Stability of the compound in mouse plasma assessed as compound remaining measured after 120 mins by HPLC analysis relative to control. The conditions noted are these: read-out: Stability. It counts as ADME, cell-free.
Data set [14] in a line: Cmax in male Swiss mouse at 100 mg/kg, po by LC-MS/MS analysis. The conditions noted are these: in vivo. The format is ADME, organism-based.
For data set [15], the system named is Plasmodium yoelii. The data set can be described thus: Antimalarial activity against Plasmodium yoelii N67 infected in female Swiss mouse model assessed as mean survival time at 100 mg/kg, po measured on day 24 relative to control. It counts as functional. The following applies: N67, 576 h, time 24 day.
Data set [16] relates to Plasmodium falciparum. The data set can be described thus: Induction of morphological changes in asexual blood stage Plasmodium falciparum assessed as appearance of healthy rings at 1 uM incubated for 48 to 72 hrs by Geimsa-staining based light microscopic analysis. The format is functional, organism-based. The conditions noted are these: time 48-72 hrs.
The test system of data set [17] is Plasmodium yoelii. The data set can be described thus: Antimalarial activity against Plasmodium yoelii N67 infected in female Swiss mouse model assessed as mean survival time at 100 mg/kg administered orally (reference value: 11 days). The conditions noted are these: route po. The format is functional.
Data set [18] relates to Plasmodium yoelii. In words: Antimalarial activity against Plasmodium yoelii N67 infected in female Swiss mouse model assessed as mean survival time at 100 mg/kg, po measured on day 17 relative to control. The format is functional. The conditions noted are these: N67, 408 h, time 17 day.
The subject of data set [19] is Plasmodium falciparum. In words: Antimalarial activity against […] infected in human erythrocytes assessed as reduction in parasite growth incubated for 72 hrs by SYBR green dye fluorimetric assay. The format is functional, organism-based. The following applies: K1, Erythrocyte.
Data set [20] has as its system Plasmodium falciparum. The data set can be described thus: Induction of morphological changes in asexual blood stage Plasmodium falciparum assessed as lack of prominent periphery in trophozoites at 1 uM incubated for 24 hrs by Geimsa-staining based light microscopic analysis. It counts as functional, organism-based.
Data set [21] relates to Plasmodium yoelii. In words: Antimalarial activity against Plasmodium yoelii N67 infected in female Swiss mouse model assessed as reduction in parasitic growth at 100 mg/kg, po administered for 3 days and measured on day 28 by Giemsa staining based analysis. The conditions noted are these: time 28.0 day. It counts as functional, organism-based.
Data set [22] deals with Plasmodium yoelii. The data set can be described thus: Antimalarial activity against Plasmodium yoelii N67 infected in female Swiss mouse model assessed as inhibition of parasitic growth at 100 mg/kg, po measured on day 10 relative to control. The following applies: time 10 day. Also on record: scale not given: the % may be the effect or the level left. It counts as functional.

Data set [23] in a line: Resistance index, ratio of IC50 for antimalarial activity against […] infected in human erythrocytes to IC50 for antimalarial activity against chloroquine-sensitive Plasmodium falciparum 3D7 infected in erythrocytes. It counts as functional.
The nature of data set [24]: Volume of distribution in male Swiss mouse at 100 mg/kg, po by LC-MS/MS analysis. It counts as ADME, organism-based. The conditions noted are these: in vivo.
The nature of data set [25]: MRT in male Swiss mouse at 100 mg/kg, po by LC-MS/MS analysis. It counts as ADME, organism-based. The following applies: in vivo.
The nature of data set [26]: Half life in male Swiss mouse at 100 mg/kg, po by LC-MS/MS analysis. The format is ADME, organism-based. The conditions noted are these: in vivo.
The subject of data set [27] is Plasmodium falciparum. In words: Antimalarial activity against chloroquine-sensitive Plasmodium falciparum 3D7 infected in human erythrocytes assessed as reduction in parasite growth incubated for 72 hrs by SYBR green dye fluorimetric assay. It counts as functional, organism-based. The conditions noted are these: 3D7, Erythrocyte.
The nature of data set [28]: Cytotoxicity against human HepG2 cells. It counts as toxicity, cell-based.
In data set [29] the test system is Plasmodium falciparum. The data set can be described thus: Induction of morphological changes in asexual blood stage Plasmodium falciparum assessed as appearance of compact structure at 1 uM incubated for 24 hrs by Geimsa-staining based light microscopic analysis. It counts as functional, organism-based.
Data set [30] has as its system Plasmodium falciparum. The data set can be described thus: Antimalarial activity against Plasmodium falciparum 3D7. It counts as functional, organism-based.
Data set [31] deals with Plasmodium falciparum. The data set can be described thus: Antimalarial activity against Plasmodium falciparum W2. It counts as functional, organism-based.

The values that follow come from ChEMBL document CHEMBL6177959, “Design, synthesis and evaluation of novel carboline-triazole hybrids as promising antimalarial agents” (Eur J Med Chem, 2025).

Molecules are shown by their SMILES. Activity calls are given as the source filed them. No cut-off for these calls is given here.

A word on the AUC: it is concentration integrated over time. A word on the Tmax: it is the time from dosing to the highest level. Usually IC50 stands for the midpoint of a concentration-inhibition curve. One may read the Cmax as the maximum level reached in the sampled fluid or tissue. For orientation: MRT means the average time that molecules of a dose stay in the body. For orientation: CC50 means the concentration that lowers cell viability or growth by half. Regarding `O=C(NCc1cn(-c2cccc(C(F)(F)F)c2)nn1)c1cc2c([nH]c3ccccc32)c(-c2ccc(F)cc2)n1`, the Activity in the data set on Plasmodium yoelii [1] is recorded as 42.55%; with Plasmodium falciparum [5] it was “Active; Irreversible Structural Deformations Observed”; with Plasmodium falciparum [7] it was 95.63%; with Plasmodium yoelii [10], “Moderate_effect”; in the data set on Plasmodium falciparum [11], “Active; Irreversible Structural Deformations Observed”; in the data set with Plasmodium falciparum [20], “Active; Irreversible Structural Deformations Observed”. The Activity in the data set with Plasmodium yoelii [22] is listed as 35.93%; in the data set with Plasmodium falciparum [29], “Active; Irreversible Structural Deformations Observed”. In data set [2], this molecule gave a CL of 15.324 mL/min/kg. Also, in [3], the area under the curve (AUC) stood at 112 µg·h/mL. Moreover, the selectivity ratio at 72 h in data set [4] came out at 232. Besides, the outcome in the data set with Plasmodium falciparum [6] and with Plasmodium falciparum [16] was inactive. Also, the Tmax in [8] was determined as 4 h. The remaining at 2 h in [9], in data set [12] and in [13] was no less than 60% each time. For the same molecule, the half-inhibitory concentration (IC50) came out at 5.88 µM in the data set with Plasmodium berghei, 0.4 µM with Plasmodium falciparum [19] and 0.84 µM with Plasmodium falciparum [27]. This molecule also gave a maximum concentration (Cmax) in [14] of 15.17 ng/mL. Also, the survival at 100 mg/kg came to 20% in the data set with Plasmodium yoelii [15] and 60% in the data set on Plasmodium yoelii [18]. Also, in the data set on Plasmodium yoelii [17], the MST amounted to 17 days. Moreover, in the data set on Plasmodium yoelii [21], the result was Active. For the same molecule, the “Ratio IC50” value in [23] is on record as 0.48. The same molecule gave a Vd in data set [24] of 4.97207 L/kg. Moreover, in data set [25], the MRT came out at 7.3 h. Further, the t1/2 in [26] came out at 3.74 h. In data set [28], this molecule returned a cytotoxic concentration (CC50) of 195 µM.
`Clc1ccc(-n2cc(-c3cncc4ccccc34)nn2)cc1` came in with a half-inhibitory concentration (IC50) in the data set with Plasmodium falciparum [30] of 36.9 µM.
Molecule `COc1cc(-c2nccc3c2[nH]c2ccccc23)cc(OC)c1OC` displayed a 50% inhibitory concentration (IC50) in the data set on Plasmodium falciparum [31] of 0.51 µM.
